Test results from US8697419B2, “Compositions and methods for culturing spirochetes” (Advanced Laboratory Services, Inc., priority 2011, dated 2014).

Tests used:
Assay type in all cases: cell-based
Borrelia burgdorferi [1] = experiment: Effect of DTT concentration on spirochete growth in BSK-H medium, dark-field microscopy
Description: (§1) The cells were cultured for 6 days with different concentration of rabbit serum, DTT and antibiotics, as depicted, and cellular growth was evaluated by direct cell counting of motile spirochetes using dark field microscopy. Each set of data represents three independent experiments (mean±SD). Statistical significance was determined using two-sample paired t-test. The data *p-values<0.05 indicates statistical significance as related to control.
The effect of the addition of a reducing agent, such as DTT, to the culture media was also evaluated. To determine the effect of DTT concentration on spirochete growth, Borrelia burgdorferi were cultured in BSK-H medium with 6%, 12%, and 20% rabbit serum and either 0.145 μg/ml DTT or 100 μg/ml DTT. The spirochetes were incubated in a CO2 incubator at 34° C. with 5% CO2 and 100% humidity for 6 days, at which time spirochete growth was evaluated by dark-field microscopy. […] See, FIG. 2B. […] See, FIG. 2B, p=0.0002.

Borrelia burgdorferi [2] = experiment: Effect of magnesium concentration on spirochete growth in BSK-H medium; settings: 7.5×10^−2 M vs 7.5×10^−3 M MgCl2, 6% rabbit serum, 6 days, data not shown
Description: To determine the effect of magnesium concentration on spirochete growth, Borrelia burgdorferi were cultured in BSK-H medium with 6% rabbit serum and either 7.5×10^−2 M MgCl2, or 7.5×10^−3 M MgCl2. The spirochetes were incubated in a CO2 incubator at 32° C. with 5% CO2 and 100% humidity for 6 days, at which time spirochete growth was evaluated by dark-field microscopy.

Borrelia burgdorferi [3] = experiment: Effect of antibiotic concentration on spirochete growth in BSK-H medium, dark-field microscopy
Description: as §1
To determine the effect of antibiotic concentration on spirochete growth, Borrelia burgdorferi were cultured in BSK-H medium containing 12% rabbit serum, 100 μg/ml DTT and one of the following antibiotics: 0.5 μg/ml rifampicin, 50 μg/ml rifampicin, a 5 μg/ml rifampicin disc (resulting in final concentration of 0.4 μg/ml), 50 μg/ml phosphomycin, 100 μg/ml phosphomycin, or the combination of 50 μg/ml rifampicin and 50 μg/ml phosphomycin. The spirochetes were incubated in a CO2 incubator at 34° C. with 5% CO2 and 100% humidity for 6 days, at which time spirochete growth was evaluated by dark-field microscopy. […] See, FIG. 2C.

For O[C@H](CS)[C@H](O)CS (racemic) [DTT, dithiothreitol], the “spirochete yield, 100 μg/ml DTT relative to 0.145 μg/ml DTT” value (Borrelia burgdorferi [1]; BSK-H with 12% rabbit serum, p=0.0002) was “twice as many spirochetes” and the spirochete yields (Borrelia burgdorferi [1]; DTT (0.145 or 100 μg/ml) included in BSK-H culture medium, 6 days) was “increased spirochete yields”.

In the case of [Cl-].[Cl-].[Mg+2] [MgCl2], the spirochete growth (Borrelia burgdorferi [2]) is reported as “No significant differences in spirochete growth”.

In the case of C[C@@H]1O[C@@H]1P(=O)(O)O [phosphomycin], the spirochete yield (Borrelia burgdorferi [3]; 50 or 100 μg/ml phosphomycin, BSK-H, 12% rabbit serum, 100 μg/ml DTT, 6 days, 34° C.) is reported as “significantly decreased spirochete yield” and the spirochete yields (Borrelia burgdorferi [3]; lower concentrations of phosphomycin (e.g., 10 and 50 μg/ml), data not shown) is reported as “significantly decreased spirochete yields”.
